# Measurements as given in a melting point compilation (Tetko et al.; mined from patent text by program, amines drawn as free bases though some values may be those of a salt).
row,Structure (SMILES),melting point
1,c1ccn(Nc2ccc(N3CCOCC3)nn2)c1,228 °C
2,O=Cc1ccc(Sc2nc3c(F)c(F)c(F)cc3[nH]2)o1,152 °C
3,CC(NC1CCC(=O)NC1c1ccc(F)cc1)c1cc(C(F)(F)F)cc(C(F)(F)F)c1 (stereo not given),120 °C
4,Nc1cccc(Nc2ncc(-c3cccnc3)s2)c1,162 °C
5,CN1CCN(C[C@H]2C(=O)Nc3ccccc3S[C@H]2c2ccccc2)CC1 (relative stereo),198 °C
6,CC1Nc2cc(F)ccc2-n2cccc21 (stereo not given),76 to 78 °C
7,CNCC1Cc2c(Cl)cc3c(c2O1)CCC3 (stereo not given),58 to 60 °C
8,CN(C)c1ccc2c(c1)SSSSS2,122 °C
9,CC1(C)CCC(C)(C)c2cc(-c3cc(-c4ccccc4O)ccc3C(=O)O)ccc21,264 to 267 °C
10,CCCCc1nc2c(N)nc(C)c(C)c2n1NC1CCCCC1,160 to 162 °C
11,CN(C)CCCCCCNc1nc2cc(Cl)c(Cl)cc2nc1-c1ccccn1,88 to 90 °C
12,COc1ccc(-c2nc(N(C)C)c3c(C)c(C#N)sc3n2)cc1,123 to 125 °C
13,Fc1ccccc1-c1cn([C@H]2CN3CCC2CC3)nn1,94 °C
14,CCOC(=O)c1ncn2c1CN(C)C(=O)c1cnccc1-2,205 to 206 °C
15,O=S(=O)(c1ccc(Br)cc1)N1CCC2(C=Cc3ccccc32)CC1,177 to 178 °C
16,O=c1[nH]c2cc(F)c(Cl)c(F)c2[nH]c1=O,> 250 °C

# The remaining lines, values ahead:
row,melting point,Structure (SMILES)
1,208 to 209 °C,COc1ccc(-c2c(Cl)c(CCl)nc3sc4c(c23)CCN(C(=O)c2ccccc2)C4)cc1OC
2,260 to 262 °C,CCN1CCN(CC(=O)NC2(c3ccc(Cl)cc3)C(=O)Nc3cc(C#N)cc(C(F)(F)F)c32)CC1 (stereo not given)
3,150 to 155 °C,CS(=O)(=O)Nc1cc(NC(=N)c2ccccc2)cc(NC(=O)/C=C/c2ccccc2C(F)(F)F)c1
4,99 to 101 °C,CCCCCCCCOc1ccc(-c2ncc(Br)cn2)cn1
5,249 °C,O=C1Nc2ccncc2C(=O)C1c1c(F)cccc1Cl (stereo not given)
6,189 to 191 °C,CS(=O)(=O)Cc1ccc(C(=NNC(N)=O)c2ccc(Cl)cc2)cc1
7,108 to 111 °C,CC1=NC(SCc2ccccc2)=CC2=CN(C)NN21
8,120 to 122 °C,COC(=O)CC1CCc2ccc(OCc3ccc(C#N)cc3)cc2C1 (stereo not given)
9,63 to 68 °C,C=Cc1ccc(CSCCOC(=O)COCC(=O)O)cc1
10,177 to 178 °C,CNC(=O)NC(=O)/C(=C/C(C)C)c1ccc(Cl)c(Cl)c1
11,118 to 122 °C,O=C(CCl)NC1CCc2ccccc2C1=O (stereo not given)
12,69 to 71 °C,COc1cccc(CSCCNC(=O)c2c([N+](=O)[O-])cccc2[N+](=O)[O-])c1
13,163 °C,O=C(NCc1ccc(C(F)(F)F)c(N2CCCCC2)c1)Nc1cccc2c1CC(O)CC2 (stereo not given)
14,68 to 78 °C,COC(=O)c1ccc(OC)c2c1CCO2
15,116 °C,CCOC(=O)N1C(C)=CC(C(=O)OCC)(c2cccc(OCC3CO3)c2)C=C1C (stereo not given)
16,101 to 103 °C,CCOC(=O)C=CC=Cc1cccc2cncn12
17,114 to 115 °C,COc1ccc(C(=O)[C@H]2CC=CC[C@H]2C(=O)O)cc1OC1CCCC1 (relative stereo)
18,232 to 234 °C,Cc1nc(N2CCN(CC(=O)NCc3ccc(F)cc3)C2=O)sc1C(=O)NCc1ccccc1
19,143 to 144 °C,CCCCCCCCCOC1C(O)C(CO)OC1n1cnc2c(N)ncnc21 (stereo not given)
20,180 °C,CC1(c2cccc(NS(C)(=O)=O)c2)C2CN(C(=O)CCc3ccsc3)CC21 (stereo not given)
21,91 °C,COC(=O)[C@H]1CC[C@@H](c2ccc(F)cc2)N1S(=O)(=O)c1ccc(C)cc1 (racemic)
22,88 to 90 °C,CCC(CC)(CC(=O)Nc1cccc(OCc2ccc3cc(F)ccc3n2)c1)C(=O)O
23,102 to 104 °C,NC(=NC(=O)c1nc(Cl)c(N)nc1N)NCCCCCCCCCCCC(=O)Nc1ncc[nH]1
24,214 to 218 °C,O=C1c2ccccc2C(=O)N1C[C@@H](O)COc1ccc(Cl)cc1O
